Numbers after ± are expanded uncertainties.
Test: xn = mol fraction of the nth substance listed
Conditions: 100 kPa, Liquid; for viscosity: Falling or rolling sphere viscometry; for mass density: Vibrating tube method

CCCCC[N+]1(C)CCCCC1.[Br-] [1-methyl-1-pentylpiperidinium bromide] + O
Conditions | mass density [kg/m3] | viscosity [mPa·s]
298.15 K, x1 = 0.003 | 1003.5 ± 1.1 | –
298.15 K, x1 = 0.0072 | 1012 ± 1.1 | –
298.15 K, x1 = 0.0119 | 1021.1 ± 1.1 | –
298.15 K, x1 = 0.0427 | 1070.7 ± 1 | 2.961 ± 0.3
298.15 K, x1 = 0.0615 | 1091.4 ± 1 | 4.385 ± 0.44
298.15 K, x1 = 0.0839 | 1110.2 ± 1 | 6.713 ± 0.67
298.15 K, x1 = 0.1192 | 1131.1 ± 1 | 12.34 ± 1.2
298.15 K, x1 = 0.1491 | 1144 ± 1 | 17.14 ± 1.7
298.15 K, x1 = 0.2004 | 1159.3 ± 1.1 | 27.79 ± 2.8
298.15 K, x1 = 0.2206 | 1163.7 ± 1.1 | 41.58 ± 4.2
298.15 K, x1 = 0.2393 | 1167.7 ± 1.1 | 58.11 ± 5.8
298.15 K, x1 = 0.2655 | 1172.3 ± 1.2 | 95.22 ± 9.7
298.15 K, x1 = 0.2745 | 1173.8 ± 1.2 | 107.8 ± 11
303.15 K, x1 = 0.003 | 1002 ± 1.1 | –
303.15 K, x1 = 0.0072 | 1010.4 ± 1.1 | –
303.15 K, x1 = 0.0119 | 1019.3 ± 1.1 | –
303.15 K, x1 = 0.0427 | 1067.8 ± 1 | 2.439 ± 0.24
303.15 K, x1 = 0.0615 | 1088.2 ± 1 | 3.663 ± 0.37
303.15 K, x1 = 0.0839 | 1106.7 ± 1 | 5.513 ± 0.55
303.15 K, x1 = 0.1192 | 1127.5 ± 1 | 9.841 ± 0.99
303.15 K, x1 = 0.1491 | 1140.4 ± 1 | 12.93 ± 1.3
303.15 K, x1 = 0.2004 | 1153.7 ± 1.1 | 21.75 ± 2.2
303.15 K, x1 = 0.2206 | 1160.2 ± 1.1 | 29.41 ± 3
303.15 K, x1 = 0.2393 | 1164.2 ± 1.1 | 44.51 ± 4.5
303.15 K, x1 = 0.2655 | 1168.8 ± 1.2 | 68.59 ± 6.9
303.15 K, x1 = 0.2745 | 1170.3 ± 1.2 | 77.28 ± 7.8
308.15 K, x1 = 0.003 | 1000.2 ± 1.1 | –
308.15 K, x1 = 0.0072 | 1008.6 ± 1.1 | –
308.15 K, x1 = 0.0119 | 1017.3 ± 1.1 | –
308.15 K, x1 = 0.0427 | 1064.8 ± 1 | 1.881 ± 0.19
308.15 K, x1 = 0.0615 | 1084.9 ± 1 | 3.087 ± 0.31
308.15 K, x1 = 0.0839 | 1103.2 ± 1 | 4.576 ± 0.46
308.15 K, x1 = 0.1192 | 1123.9 ± 1 | 8.001 ± 0.8
308.15 K, x1 = 0.1491 | 1136.8 ± 1 | 9.983 ± 1
308.15 K, x1 = 0.2004 | 1152.1 ± 1.1 | 16.35 ± 1.6
308.15 K, x1 = 0.2206 | 1156.7 ± 1.1 | 23.02 ± 2.3
308.15 K, x1 = 0.2393 | 1160.7 ± 1.1 | 33.69 ± 3.4
308.15 K, x1 = 0.2655 | 1165.3 ± 1.2 | 50.52 ± 5.1
308.15 K, x1 = 0.2745 | 1166.8 ± 1.2 | 56.51 ± 5.7
313.15 K, x1 = 0.003 | 998.2 ± 1.1 | –
313.15 K, x1 = 0.0072 | 1006.5 ± 1.1 | –
313.15 K, x1 = 0.0119 | 1015.1 ± 1.1 | –
313.15 K, x1 = 0.0427 | 1061.8 ± 1 | 1.639 ± 0.16
313.15 K, x1 = 0.0615 | 1081.5 ± 1 | 2.632 ± 0.26
313.15 K, x1 = 0.0839 | 1099.7 ± 1 | 3.846 ± 0.39
313.15 K, x1 = 0.1192 | 1120.3 ± 1 | 6.581 ± 0.66
313.15 K, x1 = 0.1491 | 1133.2 ± 1 | 8.698 ± 0.87
313.15 K, x1 = 0.2004 | 1148.2 ± 1.1 | 14.09 ± 1.4
313.15 K, x1 = 0.2206 | 1153.1 ± 1.1 | 18.11 ± 1.8
313.15 K, x1 = 0.2393 | 1157.1 ± 1.1 | 25.85 ± 2.6
313.15 K, x1 = 0.2655 | 1161.8 ± 1.2 | 38.16 ± 3.8
313.15 K, x1 = 0.2745 | 1163.3 ± 1.2 | 42.34 ± 4.3
318.15 K, x1 = 0.003 | 996.1 ± 1.1 | –
318.15 K, x1 = 0.0072 | 1004.2 ± 1.1 | –
318.15 K, x1 = 0.0119 | 1012.8 ± 1.1 | –
318.15 K, x1 = 0.0427 | 1058.7 ± 1 | 1.441 ± 0.14
318.15 K, x1 = 0.0615 | 1078.1 ± 1 | 2.267 ± 0.23
318.15 K, x1 = 0.0839 | 1096.1 ± 1 | 3.269 ± 0.33
318.15 K, x1 = 0.1192 | 1116.6 ± 1 | 5.458 ± 0.55
318.15 K, x1 = 0.1491 | 1129.5 ± 1 | 7.311 ± 0.73
318.15 K, x1 = 0.2004 | 1144.5 ± 1.1 | 11.22 ± 1.1
318.15 K, x1 = 0.2206 | 1149.5 ± 1.1 | 14.1 ± 1.4
318.15 K, x1 = 0.2393 | 1153.6 ± 1.1 | 20.21 ± 2
318.15 K, x1 = 0.2655 | 1158.3 ± 1.2 | 29.44 ± 3
318.15 K, x1 = 0.2745 | 1159.8 ± 1.2 | 32.5 ± 3.3
323.15 K, x1 = 0.003 | 993.7 ± 1.1 | –
323.15 K, x1 = 0.0072 | 1001.9 ± 1.1 | –
323.15 K, x1 = 0.0119 | 1010.3 ± 1.1 | –
323.15 K, x1 = 0.0427 | 1055.5 ± 1 | 1.261 ± 0.13
323.15 K, x1 = 0.0615 | 1074.7 ± 1 | 1.945 ± 0.2
323.15 K, x1 = 0.0839 | 1092.5 ± 1 | 2.77 ± 0.28
323.15 K, x1 = 0.1192 | 1113 ± 1 | 4.499 ± 0.45
323.15 K, x1 = 0.1491 | 1125.8 ± 1 | 6.029 ± 0.6
323.15 K, x1 = 0.2004 | 1141.2 ± 1.1 | 9.723 ± 0.98
323.15 K, x1 = 0.2206 | 1145.9 ± 1.1 | 12.33 ± 1.2
323.15 K, x1 = 0.2393 | 1150.1 ± 1.1 | 15.88 ± 1.6
323.15 K, x1 = 0.2655 | 1154.8 ± 1.1 | 22.79 ± 2.3
323.15 K, x1 = 0.2745 | 1156.3 ± 1.2 | 25.06 ± 2.5
328.15 K, x1 = 0.003 | 990.9 ± 1.1 | –
328.15 K, x1 = 0.0072 | 999.4 ± 1.1 | –
328.15 K, x1 = 0.0119 | 1007.7 ± 1.1 | –
328.15 K, x1 = 0.0427 | 1052.2 ± 1 | 1.11 ± 0.11
328.15 K, x1 = 0.0615 | 1071.2 ± 1 | 1.682 ± 0.17
328.15 K, x1 = 0.0839 | 1088.9 ± 1 | 2.369 ± 0.24
328.15 K, x1 = 0.1192 | 1109.3 ± 1 | 3.749 ± 0.38
328.15 K, x1 = 0.1491 | 1122.1 ± 1 | 5.354 ± 0.54
328.15 K, x1 = 0.2004 | 1137.5 ± 1.1 | 8.195 ± 0.82
328.15 K, x1 = 0.2206 | 1142.3 ± 1.1 | 10.68 ± 1.1
328.15 K, x1 = 0.2393 | 1146.5 ± 1.1 | 12.74 ± 1.3
328.15 K, x1 = 0.2655 | 1151.3 ± 1.1 | 18.03 ± 1.8
328.15 K, x1 = 0.2745 | 1152.8 ± 1.2 | 19.71 ± 2
333.15 K, x1 = 0.003 | 989.3 ± 1.1 | –
333.15 K, x1 = 0.0072 | 996.3 ± 1.1 | –
333.15 K, x1 = 0.0119 | 1004.9 ± 1.1 | –
333.15 K, x1 = 0.0427 | 1048.8 ± 1 | 1.034 ± 0.1
333.15 K, x1 = 0.0615 | 1067.6 ± 1 | 1.474 ± 0.15
333.15 K, x1 = 0.0839 | 1085.2 ± 1 | 2.055 ± 0.21
333.15 K, x1 = 0.1192 | 1105.5 ± 1 | 3.014 ± 0.3
333.15 K, x1 = 0.1491 | 1118.4 ± 1 | 4.513 ± 0.45
333.15 K, x1 = 0.2004 | 1132.9 ± 1.1 | 7.033 ± 0.71
333.15 K, x1 = 0.2206 | 1138.7 ± 1.1 | 8.945 ± 0.9
333.15 K, x1 = 0.2393 | 1143 ± 1.1 | 10.47 ± 1.1
333.15 K, x1 = 0.2655 | 1147.7 ± 1.1 | 14.56 ± 1.5
333.15 K, x1 = 0.2745 | 1149.3 ± 1.2 | 15.86 ± 1.6
338.15 K, x1 = 0.003 | 986 ± 1.1 | –
338.15 K, x1 = 0.0072 | 993.1 ± 1.1 | –
338.15 K, x1 = 0.0119 | 1002 ± 1.1 | –
338.15 K, x1 = 0.0427 | 1045.4 ± 1 | 0.886 ± 0.089
338.15 K, x1 = 0.0615 | 1064 ± 1 | 1.3 ± 0.13
338.15 K, x1 = 0.0839 | 1081.4 ± 1 | 1.835 ± 0.18
338.15 K, x1 = 0.1192 | 1101.8 ± 1 | 2.724 ± 0.27
338.15 K, x1 = 0.1491 | 1114.7 ± 1 | 4.032 ± 0.4
338.15 K, x1 = 0.2004 | 1131.2 ± 1.1 | 6.088 ± 0.61
338.15 K, x1 = 0.2206 | 1135.1 ± 1.1 | 7.421 ± 0.74
338.15 K, x1 = 0.2393 | 1139.4 ± 1.1 | 8.696 ± 0.87
338.15 K, x1 = 0.2655 | 1144.2 ± 1.1 | 11.95 ± 1.2
338.15 K, x1 = 0.2745 | 1145.8 ± 1.2 | 12.94 ± 1.3
343.15 K, x1 = 0.003 | 983.6 ± 1.1 | –
343.15 K, x1 = 0.0072 | 990.1 ± 1.1 | –
343.15 K, x1 = 0.0119 | 999 ± 1.1 | –
343.15 K, x1 = 0.0427 | 1041.8 ± 1 | 0.85 ± 0.085
343.15 K, x1 = 0.0615 | 1060.3 ± 1 | 1.142 ± 0.12
343.15 K, x1 = 0.0839 | 1077.7 ± 1 | 1.634 ± 0.16
343.15 K, x1 = 0.1192 | 1098 ± 1 | 2.382 ± 0.24
343.15 K, x1 = 0.1491 | 1110.9 ± 1 | 3.697 ± 0.37
343.15 K, x1 = 0.2004 | 1126.4 ± 1.1 | 5.341 ± 0.54
343.15 K, x1 = 0.2206 | 1131.5 ± 1.1 | 6.243 ± 0.63
343.15 K, x1 = 0.2393 | 1135.9 ± 1.1 | 7.34 ± 0.74
343.15 K, x1 = 0.2655 | 1140.6 ± 1.1 | 9.976 ± 1
343.15 K, x1 = 0.2745 | 1142.3 ± 1.2 | 10.75 ± 1.1

Source: the NIST ThermoML archive (doi:10.1016/j.jct.2016.03.030)
